The source of these data is paper PMC12857369 (Kidney International Reports, 2025).

In the test the target is T1, chymase (Homo sapiens, UniProt P23946).
T1 construct: gene CMA1; recombinant human chymase
T1 sequence (P23946 22-247): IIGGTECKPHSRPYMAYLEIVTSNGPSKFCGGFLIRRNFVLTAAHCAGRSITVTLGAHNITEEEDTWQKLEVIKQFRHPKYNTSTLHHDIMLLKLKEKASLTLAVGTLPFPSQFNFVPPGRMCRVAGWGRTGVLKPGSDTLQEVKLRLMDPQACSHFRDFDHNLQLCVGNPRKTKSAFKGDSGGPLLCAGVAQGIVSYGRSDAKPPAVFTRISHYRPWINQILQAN
As to the kind of experiment: Ang I to Ang II conversion by recombinant human chymase, LC-MS/MS dose response. It is filed as biochemical.

As for `CC(C)C[C@H](NC(=O)[C@@H](NC(=O)N[C@@H](Cc1ccccc1)C(=O)O)[C@@H]1CCN=C(N)N1)C(=O)N[C@H](C=O)Cc1ccccc1` [chymostatin], the IC50 came to 60 nM.

In general, IC50 refers to the concentration needed to halve the response being measured.
